According to US20210214758A1, “METHODS AND TOOLS FOR DETERMINING CLONAL RELATEDNESS AND PREDICTING CLONAL TRAITS” (priority 2018, published 2021):

Experiments:
[1] = tested on: Klebsiella isolates; conditions: known; cited from earlier work
[2] = tested on: Klebsiella isolates; experiment: Antibiotic susceptibility of Klebsiella clinical isolates per 7-SNP clonotype (Lookup Table 1; disk diffusion); format: cell-based, Klebsiella spp.
Protocol: In further embodiments, the Lookup Table is Lookup Table 1. The information contained in Lookup Table 1 below was obtained from urine specimens from patients with Klebsiella infections from several clinics within different regions of the United States. CT=clonotypes determined using a 7-SNP combination: phoE54; rpoB130; infB279; mdh315; phoE336; phoE354; and mdh429.
Next, antibiotic resistance was determined for all 387 Klebsiella isolates in the discovery set. Antibiotic testing was carried out according to the standard disk diffusion method as described in the Clinical and Laboratory Standards Institute (M100 Performance Standards for Antimicrobial Susceptibility Testing, 27th Edition, 2017). […] Since almost all Klebsiella isolates are known to be resistant to AMP and sensitive to IMI, TET is not used for treatment of urinary tract infections, and ESBL production is partially reflected in resistance to CTR, these antibiotics were not included for further analysis.
To aid in clinical decision-making and to translate clonotype information to treatment selection, Lookup Table 1 was generated. […] The information contained in Lookup Table 1 was obtained from urine specimens from patients with Klebsiella infections from several clinics within different regions of the United States. Indications of allowance or non-recommendation were determined based on a 20% resistance threshold to the indicated antibiotic; i.e., the antibiotic is recommended when more than 80% of the tested isolates within the indicated clonotype were susceptible to the indicated antibiotic, and was cautioned against when less than 80% of the isolates were susceptible to the antibiotic.

In the case of `CC1(C)S[C@@H]2[C@H](NC(=O)[C@H](N)c3ccccc3)C(=O)N2[C@H]1C(=O)O` [AMP, ampicillin], the “resistance or sensitivity of almost all Klebsiella isolates” value [1] is listed as “resistant”, the “susceptibility, %” value ([2]; CT 000) is listed as 34% and the “susceptibility, %” value ([2]; CT 001) is listed as 0%. The “susceptibility, %” value ([2]; CT 010) was 0%, the “susceptibility, %” value ([2]; CT 011) was 0% and the “susceptibility, %” value ([2]; CT 031) was 0%. For the same molecule, the “susceptibility, %” value ([2]; CT 040) was 25%, the “susceptibility, %” value ([2]; CT 050) was 0% and the “susceptibility, %” value ([2]; CT 051) was 0%. The “susceptibility, %” value ([2]; CT 071) was 0%, the “susceptibility, %” value ([2]; CT 100) was 0% and the “susceptibility, %” value ([2]; CT 110) was 0%. The “susceptibility, %” value ([2]; CT 111) was 0%, the “susceptibility, %” value ([2]; CT 130) was 2% and the “susceptibility, %” value ([2]; CT 131) was 0%. For the same molecule, the “susceptibility, %” value ([2]; CT 141) was 0%, the “susceptibility, %” value ([2]; CT 150) was 0% and the “susceptibility, %” value ([2]; CT 151) was 2%. The “susceptibility, %” value ([2]; CT 160) was 0%, the “susceptibility, %” value ([2]; CT 170) was 4% and the “susceptibility, %” value ([2]; CT 171) was 0%. For the same molecule, the “susceptibility, %” value ([2]; CT 200) was 9%, the “susceptibility, %” value ([2]; CT 201) was 6% and the “susceptibility, %” value ([2]; CT 210) was 0%. For the same molecule, the “susceptibility, %” value ([2]; CT 211) was 2%, the “susceptibility, %” value ([2]; CT 230) was 0% and the “susceptibility, %” value ([2]; CT 231) was 0%. The “susceptibility, %” value ([2]; CT 240) was 0%, the “susceptibility, %” value ([2]; CT 241) was 0% and the “susceptibility, %” value ([2]; CT 250) was 0%. The “susceptibility, %” value ([2]; CT 251) was 0%, the “susceptibility, %” value ([2]; CT 271) was 0% and the “susceptibility, %” value ([2]; CT 300) was 0%. The “susceptibility, %” value ([2]; CT 301) was 0%, the “susceptibility, %” value ([2]; CT 310) was 0% and the “susceptibility, %” value ([2]; CT 311) was 0%. For the same molecule, the “susceptibility, %” value ([2]; CT 330) was 0%, the “susceptibility, %” value ([2]; CT 331) was 1% and the “susceptibility, %” value ([2]; CT 350) was 0%. For the same molecule, the “susceptibility, %” value ([2]; CT 351) was 0%, the “susceptibility, %” value ([2]; CT 370) was 0% and the “susceptibility, %” value ([2]; CT 371) was 0%. The “susceptibility, %” value ([2]; CT 411) was 0%, the “susceptibility, %” value ([2]; CT 450) was 0% and the “susceptibility, %” value ([2]; CT 451) was 0%. For the same molecule, the “susceptibility, %” value ([2]; CT 510) was 0%, the “susceptibility, %” value ([2]; CT 511) was 0% and the “susceptibility, %” value ([2]; CT 530) was 0%. The “susceptibility, %” value ([2]; CT 531) was 0%, the “susceptibility, %” value ([2]; CT 550) was 0% and the “susceptibility, %” value ([2]; CT 551) was 0%. For the same molecule, the “susceptibility, %” value ([2]; CT 570) was 0%, the “susceptibility, %” value ([2]; CT 571) was 0% and the “susceptibility, %” value ([2]; CT 611) was 0%. The “susceptibility, %” value ([2]; CT 630) was 0%, the “susceptibility, %” value ([2]; CT 650) was 0% and the “susceptibility, %” value ([2]; CT 651) was 4%. For the same molecule, the “susceptibility, %” value ([2]; CT 670) was 0%, the “susceptibility, %” value ([2]; CT 710) was 0% and the “susceptibility, %” value ([2]; CT 730) was 0%. The “susceptibility, %” value ([2]; CT 731) was 0%, the “susceptibility, %” value ([2]; CT 750) was 0% and the “susceptibility, %” value ([2]; CT 751) was 17%. The “susceptibility, %” value ([2]; CT 771) was 0% and the “susceptibility, %” value ([2]; CT Any Klebsiella spp.) was 6%.
